Data from ChEMBL document CHEMBL4308841, “Synthesis, in vitro antiproliferative activity, and kinase inhibitory effects of pyrazole-containing diarylureas and diarylamides” (Eur J Med Chem, 2018).

How the values were obtained:
[1] = tested on: A549; assay: Growth inhibition of human A549/ATCC cells assessed as cell growth at 0.1 uM incubated for 48 hrs by sulforhodamine B assay relative to control; format: functional; conditions: A549, 48 h, read-out: Activity
[2] = tested on: SF-268; assay: Growth inhibition of human SF268 cells assessed as cell growth at 100 uM incubated for 48 hrs by sulforhodamine B assay relative to control; format: functional; conditions: SF-268, 48 h, read-out: Activity
[3] = tested on: RPMI-8226; assay: Growth inhibition of human RPMI8226 cells assessed as cell growth at 100 uM incubated for 48 hrs by sulforhodamine B assay relative to control; format: functional; conditions: RPMI-8226, 48 h, read-out: Activity
[4] = tested on: MDA-MB-231; assay: Growth inhibition of human MDA-MB-231 cells assessed as cell growth at 1 uM incubated for 48 hrs by sulforhodamine B assay relative to control; format: functional; conditions: MDA-MB-231, 48 h, read-out: Activity
[5] = tested on: K562; assay: Growth inhibition of human K562 cells assessed as cell growth at 0.1 uM incubated for 48 hrs by sulforhodamine B assay relative to control; format: functional; conditions: K562, 48 h, read-out: Activity
[6] = tested on: OVCAR-8; assay: Growth inhibition of human OVCAR8 cells assessed as cell growth at 1 uM incubated for 48 hrs by sulforhodamine B assay relative to control; format: functional; conditions: OVCAR-8, 48 h, read-out: Activity
[7] = tested on: SK-OV-3; assay: Growth inhibition of human SKOV3 cells assessed as cell growth at 0.01 uM incubated for 48 hrs by sulforhodamine B assay relative to control; format: functional; conditions: SK-OV-3, 48 h, read-out: Activity
[8] = tested on: TK-10; assay: Growth inhibition of human TK10 cells assessed as cell growth at 10 uM incubated for 48 hrs by sulforhodamine B assay relative to control; format: functional; conditions: TK-10, 48 h, read-out: Activity
[9] = tested on: SK-OV-3; assay: Growth inhibition of human SKOV3 cells assessed as cell growth at 1 uM incubated for 48 hrs by sulforhodamine B assay relative to control; format: functional; conditions: SK-OV-3, 48 h, read-out: Activity
[10] = tested on: DU-145; assay: Growth inhibition of human DU145 cells assessed as cell growth at 0.01 uM incubated for 48 hrs by sulforhodamine B assay relative to control; format: functional; conditions: DU-145, 48 h, read-out: Activity
[11] = tested on: NCI-H226; assay: Growth inhibition of human NCI-H226 cells assessed as cell growth at 1 uM incubated for 48 hrs by sulforhodamine B assay relative to control; format: functional; conditions: NCI-H226, 48 h, read-out: Activity
[12] = tested on: K562; assay: Growth inhibition of human K562 cells assessed as cell growth at 100 uM incubated for 48 hrs by sulforhodamine B assay relative to control; format: functional; conditions: K562, 48 h, read-out: Activity
[13] = tested on: IGROV-1; assay: Growth inhibition of human IGROV1 cells assessed as cell growth at 0.1 uM incubated for 48 hrs by sulforhodamine B assay relative to control; format: functional; conditions: IGROV-1, 48 h, read-out: Activity
[14] = tested on: SK-MEL-5; assay: Growth inhibition of human SK-MEL-5 cells assessed as cell growth at 1 uM incubated for 48 hrs by sulforhodamine B assay relative to control; format: functional; conditions: SK-MEL-5, 48 h, read-out: Activity
[15] = tested on: SNB-75; assay: Growth inhibition of human SNB75 cells assessed as cell growth at 0.01 uM incubated for 48 hrs by sulforhodamine B assay relative to control; format: functional; conditions: SNB-75, 48 h, read-out: Activity
[16] = tested on: A549; assay: Growth inhibition of human A549/ATCC cells incubated for 48 hrs by sulforhodamine B assay; format: functional, cell-based; conditions: A549, 48 h
[17] = tested on: COLO 205; assay: Growth inhibition of human COLO205 cells assessed as cell growth at 100 uM incubated for 48 hrs by sulforhodamine B assay relative to control; format: functional; conditions: COLO 205, 48 h, read-out: Activity
[18] = tested on: HCT-116; assay: Growth inhibition of human HCT116 cells assessed as cell growth at 0.01 uM incubated for 48 hrs by sulforhodamine B assay relative to control; format: functional; conditions: HCT-116, 48 h, read-out: Activity
[19] = tested on: SNB-75; assay: Growth inhibition of human SNB75 cells incubated for 48 hrs by sulforhodamine B assay; format: functional, cell-based; conditions: SNB-75, 48 h
[20] = tested on: A498; assay: Growth inhibition of human A498 cells assessed as cell growth at 0.01 uM incubated for 48 hrs by sulforhodamine B assay relative to control; format: functional; conditions: A498, 48 h, read-out: Activity
[21] = tested on: MOLT-4; assay: Growth inhibition of human MOLT4 cells incubated for 48 hrs by sulforhodamine B assay; format: functional, cell-based; conditions: MOLT-4, 48 h
[22] = tested on: SF-295; assay: Growth inhibition of human SF295 cells assessed as cell growth at 100 uM incubated for 48 hrs by sulforhodamine B assay relative to control; format: functional; conditions: SF-295, 48 h, read-out: Activity
[23] = tested on: SK-MEL-28; assay: Growth inhibition of human SK-MEL-28 cells assessed as cell growth at 0.1 uM incubated for 48 hrs by sulforhodamine B assay relative to control; format: functional; conditions: SK-MEL-28, 48 h, read-out: Activity
[24] = tested on: OVCAR-3; assay: Growth inhibition of human OVCAR3 cells assessed as cell growth at 0.1 uM incubated for 48 hrs by sulforhodamine B assay relative to control; format: functional; conditions: OVCAR-3, 48 h, read-out: Activity
[25] = tested on: UACC-257; assay: Growth inhibition of human UACC257 cells incubated for 48 hrs by sulforhodamine B assay; format: functional, cell-based; conditions: UACC-257, 48 h
[26] = tested on: DU-145; assay: Growth inhibition of human DU145 cells incubated for 48 hrs by sulforhodamine B assay; format: functional, cell-based; conditions: DU-145, 48 h
[27] = tested on: SK-OV-3; assay: Growth inhibition of human SKOV3 cells incubated for 48 hrs by sulforhodamine B assay; format: functional, cell-based; conditions: SK-OV-3, 48 h
[28] = tested on: MDA-MB-435; assay: Growth inhibition of human MDA-MB-435 cells assessed as cell growth at 0.01 uM incubated for 48 hrs by sulforhodamine B assay relative to control; format: functional; conditions: MDA-MB-435, 48 h, read-out: Activity
[29] = tested on: SK-MEL-5; assay: Growth inhibition of human SK-MEL-5 cells assessed as cell growth at 0.01 uM incubated for 48 hrs by sulforhodamine B assay relative to control; format: functional; conditions: SK-MEL-5, 48 h, read-out: Activity
[30] = read-out: LC50 (the source's name)
[31] = read-out: pLC50 (the source's name) (converted)

COc1cc(Cl)cc(-c2nn(-c3cccc(NC(=O)c4ccc(N5CCOCC5)c(C(F)(F)F)c4)c3)cc2-c2ccncc2)c1
growth at 0.1 µM [1]: 102% | growth at 100 µM [2]: 53% | growth at 100 µM [3]: 10% | growth at 1 µM [4]: 78% | growth at 0.1 µM [5]: 95% | growth at 1 µM [6]: 56% | growth at 0.01 µM [7]: 102% | growth at 10 µM [8]: 90.6% | growth at 1 µM [9]: 103% | growth at 0.01 µM [10]: 108% | growth at 1 µM [11]: 54% | growth at 100 µM [12]: 2% | growth at 0.1 µM [13]: 100% | growth at 1 µM [14]: 50% | growth at 0.01 µM [15]: 58% | IC50 [16]: 9.15 µM | GI50 ([16]; read-out: GI50): 9.15 µM | CC50 [16, 30]: > 100 µM | TGI ([16]; read-out: TGI): > 100 µM | GI50 ([16]; read-out: pGI50 (converted)): 9.12 µM | CC50 [16, 31]: > 100 µM | TGI ([16]; read-out: pTGI (converted)): > 100 µM | growth at 100 µM [17]: 38% | growth at 0.01 µM [18]: 97% | GI50 ([19]; read-out: GI50): 2000 nM | CC50 [19, 30]: > 100 µM | TGI ([19]; read-out: TGI): > 100 µM | GI50 ([19]; read-out: pGI50 (converted)): 2630 nM | CC50 [19, 31]: > 100 µM | TGI ([19]; read-out: pTGI (converted)): > 100 µM | growth at 0.01 µM [20]: 59% | GI50 ([21]; read-out: GI50): 5.49 µM | CC50 [21, 30]: > 100 µM | TGI ([21]; read-out: TGI): > 100 µM | GI50 ([21]; read-out: pGI50 (converted)): 5.5 µM | CC50 [21, 31]: > 100 µM | TGI ([21]; read-out: pTGI (converted)): > 100 µM | growth at 100 µM [22]: -32% | growth at 0.1 µM [23]: 103% | growth at 0.1 µM [24]: 107% | GI50 ([25]; read-out: GI50): 2.17 µM | CC50 [25, 30]: > 100 µM | TGI ([25]; read-out: TGI): 69.1 µM | GI50 ([25]; read-out: pGI50 (converted)): 21.9 µM | CC50 [25, 31]: > 100 µM | TGI ([25]; read-out: pTGI (converted)): 69.2 µM | GI50 ([26]; read-out: GI50): > 100 µM | CC50 [26, 30]: > 100 µM | TGI ([26]; read-out: TGI): > 100 µM | GI50 ([26]; read-out: pGI50 (converted)): > 100 µM | CC50 [26, 31]: > 100 µM | TGI ([26]; read-out: pTGI (converted)): > 100 µM | GI50 ([27]; read-out: GI50): > 100 µM | CC50 [27, 30]: > 100 µM | TGI ([27]; read-out: TGI): > 100 µM | GI50 ([27]; read-out: pGI50 (converted)): > 100 µM | CC50 [27, 31]: > 100 µM | TGI ([27]; read-out: pTGI (converted)): > 100 µM | growth at 0.01 µM [28]: 97% | growth at 0.01 µM [29]: 97%
